Patent US20090068290A1, “BIFEPRUNOX DOSES FOR TREATING SCHIZOPHRENIA” (priority 2006, published 2009)

Columns and labels:
Type in all cases: in vivo, human
[1] = tested on: adult subjects with schizophrenia; test: Calgary Depression Scale for Schizophrenia (CDSS), Clinical Study Two; details: for CDSS score, treatment effect (bifeprunox, placebo): Endpoint LOCF; for mean change (SD) from Baseline to Endpoint in CDSS score: ITT
Procedure: Rating scale assessments were performed weekly, except for week 5, to measure the change from baseline to endpoint of the PANSS total score. Other assessments included: PANSS positive symptom subscale score, PANSS negative symptom subscale score, PANSS general pschopathology subscale score, BPRS total score, BPRS psychosis score, the CGI-S score, the CGI-I score, responder rates based on the PANSS total score, and the Calgary Depression Scale for Schizophrenia (CDSS). […]
Subjects who completed this study had the option to continue in the long-term. […] Risperidone-treated subjects were titrated from 2 mg to 6 mg daily over a three-day period and were subsequently maintained at 6 mg/day for the remainder of the treatment period. […] Blood samples were also obtained at Screening/Baseline, Week 3, and Week 6 for clinical laboratory assessments.

[2] = tested on: adult subjects with schizophrenia; test: SAS, BAS and AIMS movement scales, Clinical Study Two
Procedure: Pharmacokinetic (PK) data of bifeprunox in schizophrenic subjects were also assessed and are presented in a separate report (combined with data from study S1543003).
The SAS is used to measure Parkinsonian-type symptoms in patients exposed to antipsychotics. The scale consists of 10 items, each rated on a 5-point scale ranging from 0 (complete absence of the condition) to 4 (presence of the condition in extreme form). The SAS total score is defined as the sum of all item scores, and the range is 0 to 40. A SAS total score of up to 3 is considered normal.
The BAS is used to rate observable, restless movements of drug-induced akathisia as well as the subjective awareness of restlessness and any distress associated with the akathisia. The scale consists of 3 items that is rated from 0 (no evidence of akathisia) to 3 (severe akathisia). The BAS total score is defined as the sum of the these three BAS item scores and ranges from is 0 to 9. In addition, a global clinical assessment of akathisia is rated from 0 (no evidence of akathisia) to 5 (severe akathisia).
The AIMS, designed to record the occurrence of dyskinetic movements, consists of 12 items. Items 1 to 7 measure specific involuntary movements on a scale from 0 (none) to 4 (severe). Items 8 to 10 measure global assessment of abnormal movement on a scale from 0 (no awareness) to 4 (aware, severe distress). Items 11 and 12 are questions regarding the dental condition of the patient, with yes/no answers. The total score is calculated by summing AIMS items 1 through 10 and ranges from 0 to 40; the non-global total score is calculated by summing items 1 through 7.

[3] = Body weight, Clinical Study Two

In the case of `O=c1[nH]c2cccc(N3CCN(Cc4cccc(-c5ccccc5)c4)CC3)c2o1` [Bifeprunox, 7-[4-([1,1′-biphenyl]-3-ylmethyl)-1-piperazinyl]-2(3H)-benzoxazolone], the “Change from Baseline in CDSS Total Score, Median” value ([1]; 30 mg, Week 6/Endpoint, LOCF) is reported as 0.0, the “CDSS Total Score, Trt Effect” value ([1]; 40 mg versus placebo, Week 6/Endpoint, LOCF) is reported as 0.29 and the “Change from Baseline in CDSS Total Score, Mean (SD)” value ([1]; 40 mg, Week 1, LOCF) is reported as −0.54 (2.56). For the same molecule, the “Change from Baseline in CDSS Total Score, Median” value ([1]; 40 mg, Week 1, LOCF) was 0.0, the “Change from Baseline in CDSS Total Score, Mean (SD)” value ([1]; 40 mg, Week 2, LOCF) was −0.32 (2.95) and the “Change from Baseline in CDSS Total Score, Median” value ([1]; 40 mg, Week 2, LOCF) was 0.0. For the same molecule, the “Change from Baseline in CDSS Total Score, Mean (SD)” value ([1]; 40 mg, Week 3, LOCF) was −0.44 (3.09), the “Change from Baseline in CDSS Total Score, Median” value ([1]; 40 mg, Week 3, LOCF) was 0.0 and the “Change from Baseline in CDSS Total Score, Mean (SD)” value ([1]; 40 mg, Week 4, LOCF) was −0.19 (3.32). For the same molecule, the “Change from Baseline in CDSS Total Score, Median” value ([1]; 40 mg, Week 4, LOCF) was 0.0, the “Change from Baseline in CDSS Total Score, Mean (SD)” value ([1]; 40 mg, Week 6/Endpoint, LOCF) was 0.01 (3.66) and the “Change from Baseline in CDSS Total Score, Median” value ([1]; 40 mg, Week 6/Endpoint, LOCF) was 0.0. For the same molecule, the “CDSS score, treatment effect (bifeprunox, placebo)” value ([1]; bifeprunox 30 mg) was −0.38, the “mean change (SD) from Baseline to Endpoint in CDSS score” value ([1]; bifeprunox 30 mg, LOCF) was −0.66 (3.64) and the “CDSS score, treatment effect (bifeprunox, placebo)” value ([1]; bifeprunox 40 mg) was 0.29. For the same molecule, the “mean change (SD) from Baseline to Endpoint in CDSS score” value ([1]; bifeprunox 40 mg, LOCF) was 0.01 (3.66), the “SAS shifts from normal at Baseline to abnormal at Endpoint” value ([2]; Bifeprunox 30 mg) was under 1% and the “SAS shifts from normal at Baseline to abnormal at Endpoint” value ([2]; Bifeprunox 40 mg) was 4%. For the same molecule, the “subjects with abnormal SAS scores at Endpoint” value ([2]; Bifeprunox 40 mg) was 7%, the “Weight, Baseline Mean of subjects with Endpoint change” value ([3]; Bifeprunox 30 mg) was 168.1 lbs and the “Weight, Baseline Mean of subjects with Week 6 change” value ([3]; Bifeprunox 30 mg) was 166.1 lbs. The “Weight, Baseline, Max” value ([3]; Bifeprunox 30 mg) was 360 lbs, the “Weight, Baseline, Mean (SD)” value ([3]; Bifeprunox 30 mg) was 169.2 (55.3) lbs and the “Weight, Baseline, Median” value ([3]; Bifeprunox 30 mg) was 161 lbs. The “Weight, Baseline, Min” value ([3]; Bifeprunox 30 mg) was 84 lbs, the “Weight, Change from Baseline at Endpoint, Max” value ([3]; Bifeprunox 30 mg) was 9 lbs and the “Weight, Change from Baseline at Endpoint, Mean (SD)” value ([3]; Bifeprunox 30 mg) was −2.2 (6.7) lbs. The “Weight, Change from Baseline at Endpoint, Median” value ([3]; Bifeprunox 30 mg) was 0 lbs, the “Weight, Change from Baseline at Endpoint, Min” value ([3]; Bifeprunox 30 mg) was −32 lbs and the “Weight, Change from Baseline at Week 6, Max” value ([3]; Bifeprunox 30 mg) was 8 lbs. For the same molecule, the “Weight, Change from Baseline at Week 6, Mean (SD)” value ([3]; Bifeprunox 30 mg) was −4.3 (8.2) lbs, the “Weight, Change from Baseline at Week 6, Median” value ([3]; Bifeprunox 30 mg) was −2 lbs and the “Weight, Change from Baseline at Week 6, Min” value ([3]; Bifeprunox 30 mg) was −32 lbs. For the same molecule, the “mean weight change at Endpoint” value ([3]; Bifeprunox 30 mg) was −2.2 lbs, the “Weight, Baseline Mean of subjects with Endpoint change” value ([3]; Bifeprunox 40 mg) was 160.7 lbs and the “Weight, Baseline Mean of subjects with Week 6 change” value ([3]; Bifeprunox 40 mg) was 162.0 lbs. The “Weight, Baseline, Max” value ([3]; Bifeprunox 40 mg) was 378 lbs, the “Weight, Baseline, Mean (SD)” value ([3]; Bifeprunox 40 mg) was 161.9 (46.6) lbs and the “Weight, Baseline, Median” value ([3]; Bifeprunox 40 mg) was 155 lbs. For the same molecule, the “Weight, Baseline, Min” value ([3]; Bifeprunox 40 mg) was 84 lbs, the “Weight, Change from Baseline at Endpoint, Max” value ([3]; Bifeprunox 40 mg) was 15 lbs and the “Weight, Change from Baseline at Endpoint, Mean (SD)” value ([3]; Bifeprunox 40 mg) was −1.9 (5.8) lbs. The “Weight, Change from Baseline at Endpoint, Median” value ([3]; Bifeprunox 40 mg) was −1 lbs, the “Weight, Change from Baseline at Endpoint, Min” value ([3]; Bifeprunox 40 mg) was −18 lbs and the “Weight, Change from Baseline at Week 6, Max” value ([3]; Bifeprunox 40 mg) was 10 lbs. For the same molecule, the “Weight, Change from Baseline at Week 6, Mean (SD)” value ([3]; Bifeprunox 40 mg) was −3.1 (5.8) lbs, the “Weight, Change from Baseline at Week 6, Median” value ([3]; Bifeprunox 40 mg) was −2 lbs and the “body weight (in words)” value ([3]; bifeprunox 30, 40 mg, 6 weeks) was “Small comparable decreases in body weight”.
